Data published in paper PMC4807281 (The Journal of Biological Chemistry, 2016).

How the values were obtained:
Hsp72 = test system: Hsp72; design: method as in PMID 15540944; conditions: modification at Cys-267; ref [62]; cited from earlier work
DnaK [1] = target: T1, DnaK (Escherichia coli, UniProt P0A6Y8); assay: Peptide binding assay (fluorescence polarization), control/deglutathionylated DnaK; design: species or system E. coli; conditions: ADP state; FP
T1 construct: His6-Smt3 (N, cleaved yes); made in house; host or cells: E. coli BL21(DE3)
T1 sequence (P0A6Y8 2-638): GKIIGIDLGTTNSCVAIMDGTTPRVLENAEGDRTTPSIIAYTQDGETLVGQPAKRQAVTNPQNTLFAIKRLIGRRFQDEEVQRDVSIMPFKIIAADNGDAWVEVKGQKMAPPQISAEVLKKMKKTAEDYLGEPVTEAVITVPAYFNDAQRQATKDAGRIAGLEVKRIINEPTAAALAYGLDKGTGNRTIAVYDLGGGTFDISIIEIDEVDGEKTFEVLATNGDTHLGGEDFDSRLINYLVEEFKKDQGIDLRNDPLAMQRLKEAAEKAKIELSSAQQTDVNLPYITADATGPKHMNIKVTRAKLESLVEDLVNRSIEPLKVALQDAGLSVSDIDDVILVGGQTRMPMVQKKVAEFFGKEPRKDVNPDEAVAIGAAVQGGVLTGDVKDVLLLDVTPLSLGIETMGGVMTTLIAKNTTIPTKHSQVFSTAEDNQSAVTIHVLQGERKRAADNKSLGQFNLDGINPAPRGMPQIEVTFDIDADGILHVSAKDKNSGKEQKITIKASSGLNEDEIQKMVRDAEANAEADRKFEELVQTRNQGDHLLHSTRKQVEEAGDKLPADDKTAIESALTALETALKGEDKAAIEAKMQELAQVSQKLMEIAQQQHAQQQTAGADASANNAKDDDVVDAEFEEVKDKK
Description: FP values are expressed in millipolarization units. All statistical analyses were performed with Origin 8 software.
FIGURE 6.

[2] = test system: heat-induced luciferase aggregation; design: method as in PMID 15109915; conditions: ref [68]; cited from earlier work
Ssa1 = test system: Ssa1; design: method as in PMID 8939938, PMID 9753476, PMID 10462452; conditions: absence of nucleotide; ref [56], [60], [61]; cited from earlier work
DnaK [3] = target: T1, DnaK; design: species or system E. coli; conditions: 0.5 mM ATP or ADP premixed 30 min with DnaK T199A; GSH and diamide
Description: To deglutathionylate the protein, 10 mM DTT was added to the reaction mixture. GSH, diamide, and/or DTT was removed by dialysis.
(§1) Cooled protein was mixed with the dye and incubated in the dark at room temperature for at least 30 min. SDS-PAGE was performed to separate protein and surplus dye. Fluorescence of Alexa Fluor 350 dye was observed using excitation at 254 nm with a UV lamp.
(§2) FIGURE 3. […] Unmodified cysteine residues for untreated control, glutathionylated, and deglutathionylated samples were labeled with fluorescent dye.

DnaK [4] = target: T1, DnaK; design: species or system E. coli; conditions: 1 mM ADP/ATP/NRLLLTG peptide, 1 h room temperature before DTNB; mean of three
Description: A standard curve was obtained using 0–100 μM free cysteine. […] The number of active cysteine residues can be calculated by dividing the concentration of free thiols in the protein by the concentration of protein.
FIGURE 1. […] The N-terminal NBD and its subdomains IA, IB, IIA, and IIB and the C-terminal SBD are indicated. […] The number of free thiols was calculated from the absorbance at 412 nm using a standard curve.

glutathionylated DnaK = target: T2, glutathionylated DnaK (Escherichia coli, UniProt P0A6Y8); assay: Deglutathionylation of glutathionylated DnaK by Grx3/GSH; design: species or system E. coli; conditions: 10 μM glutathionylated DnaK, 30 min, 37 °C, […] Grx3 with 20 μM GSH
T2 construct: His6-Smt3 (N, cleaved yes); made in house; host or cells: E. coli BL21(DE3)
T2 sequence (P0A6Y8 2-638): as above
Description: […] GSH, diamide, and/or DTT was removed by dialysis.
as §1, §2

## CCCCCC(O)C=CC=O (stereo not drawn) [4-Hydroxy-2-nonenal]
Hsp72
  effect on protein refoldase activity of Hsp72: inhibits its protein refoldase activity

## CC(C)C[C@H](NC(=O)[C@H](C)NC(=S)Nc1ccc2c(c1)C(=O)OC21c2ccc(O)cc2Oc2cc(O)ccc21)C(=O)N[C@@H](CC(C)C)C(=O)N[C@@H](CC(C)C)C(=O)N[C@@H](CO)C(=O)N[C@@H](C)C(=O)N1CCC[C@H]1C(=O)N[C@@H](CCCNC(=N)N)C(=O)N[C@@H](CCCNC(=N)N)C(=O)O
DnaK [1]
  effect of ADP binding to DnaK on binding affinity of peptide: did not obviously alter the binding affinity of peptide

## Hsc70: Hsp70 family member whose glutathionylation is cited
[2]
  effect of glutathionylation of Hsc70: enhance inhibition of heat-induced luciferase aggregation

## CCN1C(=O)C=CC1=O [N-ethylmaleimide]
Ssa1
  effect of modification on Ssa1: reduces transmembrane transport as well as the ATPase and luciferase refolding activities of Ssa1

## Nc1ncnc2c1ncn2[C@@H]1O[C@H](COP(=O)(O)OP(=O)(O)O)[C@@H](O)[C@H]1O [ADP]
DnaK [3]
  effect on glutathionylation of DnaK: no glutathionylation of DnaK occurred
DnaK [4]
  effect on cysteine reactivity of DnaK: inhibited cysteine reactivity of DnaK to different degrees

## Nc1ncnc2c1ncn2[C@@H]1O[C@H](COP(=O)(O)OP(=O)(O)OP(=O)(O)O)[C@@H](O)[C@H]1O [ATP]
DnaK [3]
  effect on glutathionylation of DnaK: no glutathionylation of DnaK occurred
DnaK [4]
  effect on cysteine reactivity of DnaK: inhibited cysteine reactivity of DnaK to different degrees

## N[C@@H](CCC(=O)N[C@@H](CS)C(=O)NCC(=O)O)C(=O)O [GSH]
Glutathionylated DnaK
  deglutathionylation of DnaK: worked synergistically to cause deglutathionylation of DnaK
